Measurements as given in patent US20150307841A1, “Composition for Promoting Differentiation and Proliferation of Neural Stem Cell and Neural Precursor Cell” (priority 2014, published 2015).

Test system: GAD67-, VGluT1-, ChAT-positive neurons and OX42 reactive microglia in the hippocampus
Assay: Immunohistochemical analysis of GAD67, VGluT1, ChAT, OX42 in hippocampus (Experimental Example 1)
Type: in vivo, rat
Experimental: Immunostaining was carried out using antibodies against VGluT1 (diluted 1:500, Chemicon), ChAT (1:500, Chemicon), GFAP (1:1,000, Chemicon), tyrosine hydroxylase (TH, 1:500, Chemicon) and OX42 (CD11b/c, 1:250, Serotec) as primary antibodies instead of the anti-BrdU antibodies used in (4). The other process was the same as in (4), except that incubation was performed at 37° C. for 30 minutes in 2 N HCl.
In the immunohistochemical analysis, the number of the cells immnunostained against each antibody was counted from 5 or 6 hippocampal coronal sections. For each staining analysis, every fifth cryosections of the hippocampal region of brain tissues (AP: bregma −4.5 to −4.3 mm) were taken for immunostaining. The number of the immnunostained cells was represented as an average of number of cells in the hippocampal region of one brain slice.
The number of the VGluT1- and GAD-positive cells in the brain slice samples 1 week and 4 weeks after the administration of soyasaponin I was presented per microscopic field (×400-VGluT1, ×800-GAD67) and the number of the ChAT-positive cells was presented per each hippocampal region (10-12 confocal laser microscopic fields). 5-11 animals were used per group. Western blotted membranes were analyzed using the multi-gauge, bio-imaging program on LAS-4000 Mini (Fujifilm Life Science, Stamford, Conn., USA). Densitometeric analysis of the expression ratios of VGluT1/β-actin, GAD65/67/β-actin and ChAT/β-actin was normalized to the vehicle group.

[1] = ibotenic acid injected into entorhinal cortex, no soyasaponin I
[2] = memory-deficient model rats, soyasaponin I at 5, 10, 20 mg/kg oral

Structure (SMILES): N[C@H](C(=O)O)c1cc(=O)[nH]o1 [IBO, Ibotenic acid]
- ChAT-positive cells in the hippocampus relative to Sham [1]: 52.07 ± 7.38%
- GAD67-positive cells in the hippocampus relative to Sham [1]: 43.02 ± 3.72%
- VGluT1-positive cells in the hippocampus relative to Sham [1]: 72.44 ± 3.86%
- Number of ChAT-positive cells in the hippocampus [2]: 7.30±1.32 cells
- Number of GAD67-positive cells [2]: 3.81±0.63 cells per hippocampal slice
